According to patent US20250340563A1, “FUSED PYRIDAZINE DERIVATIVES AS NLRP3 INHIBITORS” (Takeda Pharmaceutical Company Limited, priority 2022, published 2025):

biological target: NLRP3 inflammasome (Homo sapiens, UniProt Q96P20); assay: IL-1β assay in IFN-γ-differentiated, LPS-primed, ATP-activated THP-1 cells (ELISA); assay type: cell-based; conditions: 50 ng/mL LPS priming, 2.5 mM ATP activation, 2 hours
Experimental: Monocytic THP-1 cells (ATCC: TIB-202) are maintained in accordance with the provider's instructions in RPMI media (Life Technologies, Cat #A10491-01); RPMI is supplemented with 10% heat inactivated fetal bovine serum (Hyclone Cat #SH30396.03). The cells are differentiated into macrophages by the addition of 25 ng/mL IFN-7 (PeproTech, Cat #300-02-100UG) for 24 hours at 37° C./5% CO2. Media is exchanged with fresh media with no FBS, and the cells are treated with 50 ng/mL LPS (priming step) for 24 hours at 37° C./5% CO2 (LPS-EK: Invivogen, Cat #tlrl-peklps). Media is exchanged with fresh media with no FBS. The cells are plated at 40,000 cells per well in 384-well flat-bottom cell culture plates (Costar 3764) containing compounds (added in 1:1000) in a 1:3.16 serial dilution series in DMSO and are incubated for 30 minutes at 37° C./5% CO2. The NLRP3 inflammasome is activated with the addition of 2.5 mM ATP (Sigma Cat #A3377) and the cells are incubated for 2 hours at 37° C./5% CO2. At the end of the incubation period, 40 μL supernatant is removed, and […] are monitored using an ELISA (Human […], R&D systems, Cat #DY201) in accordance with the manufacturer's instructions.
The IC50 values are calculated from a plot of percentage of inhibition versus the inhibitor concentration by a logistics curve fit according to: Y=[Bottom+(Top−Bottom)]/(1+10^[(Log IC50−X)·Hill Slope], where Y is the % inhibition at the inhibitor concentration, X, “Bottom” is the lowest inhibition value, i.e. 0%, “Top” is the maximum inhibition value, i.e. 100%, and the “Hill Slope” describes the slope of the sigmoidal curve between the “Bottom” and “Top” values. The curve fitting was conducted with internally developed software.

NLRP3 inflammasome, sequence (Q96P20 whole entry): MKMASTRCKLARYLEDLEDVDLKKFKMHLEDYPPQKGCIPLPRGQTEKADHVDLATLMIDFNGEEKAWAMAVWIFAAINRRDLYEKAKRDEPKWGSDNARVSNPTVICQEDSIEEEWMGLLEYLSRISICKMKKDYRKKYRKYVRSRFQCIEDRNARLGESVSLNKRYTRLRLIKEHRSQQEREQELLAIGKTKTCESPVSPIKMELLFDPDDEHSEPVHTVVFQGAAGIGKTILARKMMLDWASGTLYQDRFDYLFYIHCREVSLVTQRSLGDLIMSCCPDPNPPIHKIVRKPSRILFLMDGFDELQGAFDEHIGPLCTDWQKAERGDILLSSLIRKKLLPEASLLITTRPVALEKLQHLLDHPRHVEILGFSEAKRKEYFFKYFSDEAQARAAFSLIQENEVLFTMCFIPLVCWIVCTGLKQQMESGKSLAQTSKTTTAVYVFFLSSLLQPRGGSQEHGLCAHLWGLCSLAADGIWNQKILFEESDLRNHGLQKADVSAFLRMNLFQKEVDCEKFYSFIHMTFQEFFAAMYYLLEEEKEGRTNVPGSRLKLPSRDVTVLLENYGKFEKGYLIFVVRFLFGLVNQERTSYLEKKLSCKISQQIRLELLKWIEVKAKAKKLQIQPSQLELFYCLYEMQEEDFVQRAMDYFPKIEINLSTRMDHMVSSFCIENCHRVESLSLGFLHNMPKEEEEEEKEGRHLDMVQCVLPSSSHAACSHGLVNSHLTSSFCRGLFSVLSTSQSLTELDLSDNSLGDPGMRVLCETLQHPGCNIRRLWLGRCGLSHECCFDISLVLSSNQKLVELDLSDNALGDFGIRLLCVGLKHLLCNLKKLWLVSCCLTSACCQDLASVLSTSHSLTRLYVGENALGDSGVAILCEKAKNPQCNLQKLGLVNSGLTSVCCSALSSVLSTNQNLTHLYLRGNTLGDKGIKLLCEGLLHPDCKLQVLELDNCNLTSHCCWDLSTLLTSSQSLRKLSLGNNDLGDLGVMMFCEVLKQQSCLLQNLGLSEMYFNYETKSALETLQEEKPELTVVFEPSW

Row | Compound | IC50 [nM]
1 | F[C@@H]1C[C@@H](Nc2nnc(-c3ccc(Cl)cc3)c3ccccc23)CN(C2CC2)C1 [Example 54, 4-(4-chlorophenyl)-N-((3R,5R)-1-cyclopropyl-5-fluoropiperidin-3-yl)phthalazin-1-amine] | 1200
2 | COc1ccc(-c2nnc(N[C@@H]3C[C@@H](F)CN(C4CC4)C3)c3ccccc23)cc1 [Example 55, N-((3R,5R)-1-cyclopropyl-5-fluoropiperidin-3-yl)-4-(4-methoxyphenyl)phthalazin-1-amine] | 575
3 | COc1ccc(-c2nnc(N[C@@H]3CCCN(C)C3)c3cnccc23)c(F)c1 [Example 57, (R)-1-(2-fluoro-4-methoxyphenyl)-N-(1-methylpiperidin-3-yl)pyrido[3,4-d]pyridazin-4-amine] | 21
4 | COc1ccc(-c2nnc(N[C@@H]3CCCN(CCF)C3)c3ccccc23)c(F)c1 [Example 61, (R)-4-(2-fluoro-4-methoxyphenyl)-N-(1-(2-fluoroethyl)piperidin-3-yl)phthalazin-1-amine] | 134
5 | CN1CCCC(Nc2nnc(-c3ccc(Cl)cc3)c3cnccc23)C1 (centres unmarked) [Example 62, 4-(4-chlorophenyl)-N-(1-methylpiperidin-3-yl)pyrido[3,4-d]pyridazin-1-amine] | 3550
6 | CN1CCCC(Nc2nnc(-c3ccc(Cl)cc3)c3ccncc23)C1 (centres unmarked) [Example 63, 1-(4-chlorophenyl)-N-(1-methylpiperidin-3-yl)pyrido[3,4-d]pyridazin-4-amine] | 381
7 | CN1CCC[C@H](Nc2nnc(-c3ccc(Cl)cc3)c3ccncc23)C1 [Example 65, (S)-1-(4-chlorophenyl)-N-(1-methylpiperidin-3-yl)pyrido[3,4-d]pyridazin-4-amine] | 1220
8 | CN1CCCC(Nc2nnc(-c3ccc(Cl)cc3F)c3cnccc23)C1 (centres unmarked) [Example 69, 4-(4-chloro-2-fluorophenyl)-N-(1-methylpiperidin-3-yl)pyrido[3,4-d]pyridazin-1-amine] | 838
9 | CN1CCC[C@H](Nc2nnc(-c3ccc(Cl)cc3F)c3ccncc23)C1 [Example 70, (S)-1-(4-chloro-2-fluorophenyl)-N-(1-methylpiperidin-3-yl)pyrido[3,4-d]pyridazin-4-amine] | 2000
10 | Cc1nccc2c(NC3CCCN(C)C3)nnc(-c3ccc(Cl)cc3)c12 (centres unmarked) [Example 77, 4-(4-chlorophenyl)-5-methyl-N-(1-methylpiperidin-3-yl)pyrido[3,4-d]pyridazin-1-amine] | 1510
11 | COc1ccc(-c2nnc(N[C@@H]3CCCN(C)C3)c3c(C)nccc23)c(O)c1 [Example 78, (R)-5-methoxy-2-(5-methyl-4-((1-methylpiperidin-3-yl)amino)pyrido[3,4-d]pyridazin-1-yl)phenol] | 183
12 | CN1CCC[C@@H](Nc2nnc(-c3ccc(C(F)(F)F)cc3O)c3ccncc23)C1 [Example 90, (R)-2-(4-((1-methylpiperidin-3-yl)amino)pyrido[3,4-d]pyridazin-1-yl)-5-(trifluoromethyl)phenol] | 3
13 | CN1CCC[C@@H](Nc2nnc(-c3ccccc3C(F)F)c3ccncc23)C1 [Example 91, (R)-1-(2-(difluoromethyl)phenyl)-N-(1-methylpiperidin-3-yl)pyrido[3,4-d]pyridazin-4-amine] | 307
14 | CN1CCC[C@@H](Nc2nnc(-c3ccc(OC(F)F)cc3F)c3ccncc23)C1 [Example 92, (R)-1-(4-(difluoromethoxy)-2-fluorophenyl)-N-(1-methylpiperidin-3-yl)pyrido[3,4-d]pyridazin-4-amine] | 60
15 | C[C@]1(O)C[C@@H](Nc2nnc(-c3ccc(Cl)cc3O)c3cnccc23)C1 [Example 94, cis-5-chloro-2-(1-((3-hydroxy-3-methylcyclobutyl)amino)pyrido[3,4-d]pyridazin-4-yl)phenol] | 102
16 | CN1CCc2c(NC3CCCN(C)C3)nnc(-c3ccc(Cl)cc3)c2C1 (centres unmarked) [Example 99, 4-(4-chlorophenyl)-6-methyl-N-(1-methylpiperidin-3-yl)-5,6,7,8-tetrahydropyrido[3,4-d]pyridazin-1-amine] | 2040
17 | CCN1CCc2c(NC3CCCN(C)C3)nnc(-c3ccc(Cl)cc3)c2C1 (centres unmarked) [Example 100, 4-(4-chlorophenyl)-6-ethyl-N-(1-methylpiperidin-3-yl)-5,6,7,8-tetrahydropyrido[3,4-d]pyridazin-1-amine] | 2690
18 | CN1CCc2c(-c3ccc(Cl)cc3)nnc(NC3CCCN(C)C3)c2C1 (centres unmarked) [Example 101, 1-(4-chlorophenyl)-6-methyl-N-(1-methylpiperidin-3-yl)-5,6,7,8-tetrahydropyrido[3,4-d]pyridazin-4-amine] | 804

Row | Compound | IC50 [nM]
19 | CCN1CCc2c(-c3ccc(Cl)cc3)nnc(NC3CCCN(C)C3)c2C1 (centres unmarked) [Example 102, 1-(4-chlorophenyl)-6-ethyl-N-(1-methylpiperidin-3-yl)-5,6,7,8-tetrahydropyrido[3,4-d]pyridazin-4-amine] | 692
20 | CN1CCCC(Nc2nnc(-c3ccc(Cl)cc3)c3c2CN(C2CC2)CC3)C1 (centres unmarked) [Example 103, 1-(4-chlorophenyl)-6-cyclopropyl-N-(1-methylpiperidin-3-yl)-5,6,7,8-tetrahydropyrido[3,4-d]pyridazin-4-amine] | 3630
21 | CC(=O)N1CCc2c(NC3CCCN(C)C3)nnc(-c3ccc(Cl)cc3)c2C1 (centres unmarked) [Example 104, 1-(4-(4-chlorophenyl)-1-((1-methylpiperidin-3-yl)amino)-7,8-dihydropyrido[3,4-d]pyridazin-6(5H)-yl)ethan-1-one] | 1660
22 | CC(=O)N1CCc2c(-c3ccc(Cl)cc3)nnc(NC3CCCN(C)C3)c2C1 (centres unmarked) [Example 105, 1-(1-(4-chlorophenyl)-4-((1-methylpiperidin-3-yl)amino)-7,8-dihydropyrido[3,4-d]pyridazin-6(5H)-yl)ethan-1-one] | 955
23 | CN1CCCC(Nc2nnc(-c3ccc(Cl)cc3)c3c2CCN(S(C)(=O)=O)C3)C1 (centres unmarked) [Example 106, 4-(4-chlorophenyl)-N-(1-methylpiperidin-3-yl)-6-(methylsulfonyl)-5,6,7,8-tetrahydropyrido[3,4-d]pyridazin-1-amine] | 3310
24 | CN1CCCC(Nc2nnc(-c3ccc(Cl)cc3)c3c2CN(S(C)(=O)=O)CC3)C1 (centres unmarked) [Example 107, 1-(4-chlorophenyl)-N-(1-methylpiperidin-3-yl)-6-(methylsulfonyl)-5,6,7,8-tetrahydropyrido[3,4-d]pyridazin-4-amine] | 1780
25 | CN1CC(Nc2nnc(-c3ccc(Cl)cc3)c3ccccc23)CC(F)(F)C1 (centres unmarked) [Example 108, 4-(4-chlorophenyl)-N-(5,5-difluoro-1-methylpiperidin-3-yl)phthalazin-1-amine] | 3160
26 | CN1CCC(Nc2nnc(-c3ccc(Cl)cc3)c3ccccc23)C1=O (centres unmarked) [Example 109, 3-((4-(4-chlorophenyl)phthalazin-1-yl)amino)-1-methylpyrrolidin-2-one] | 4900
27 | CC(=O)N1CCCC(Nc2nnc(-c3ccc(Cl)cc3)c3ccccc23)C1 (centres unmarked) [Example 110, 1-(3-((4-(4-chlorophenyl)phthalazin-1-yl)amino)piperidin-1-yl)ethan-1-one] | 4480
28 | CN1CCCC(N(C)c2nnc(-c3ccc(Cl)cc3)c3ccccc23)C1 (centres unmarked) [Example 112, 4-(4-chlorophenyl)-N-methyl-N-(1-methylpiperidin-3-yl)phthalazin-1-amine] | 4250
29 | O[C@]1(C(F)(F)F)CCC[C@H](Nc2nnc(-c3ccc(Cl)cc3)c3ccccc23)C1 [Example 115, (1R,3S)-3-((4-(4-chlorophenyl)phthalazin-1-yl)amino)-1-(trifluoromethyl)cyclohexan-1-ol] | 2190
30 | O[C@]1(C(F)(F)F)CCC[C@@H](Nc2nnc(-c3ccc(Cl)cc3)c3ccccc23)C1 [Example 116, (1R,3R)-3-((4-(4-chlorophenyl)phthalazin-1-yl)amino)-1-(trifluoromethyl)cyclohexan-1-ol] | 912
31 | O[C@]1(C(F)(F)F)C[C@@H](Nc2nnc(-c3ccc(Cl)cc3)c3ccccc23)C1 [Example 117, trans-3-((4-(4-chlorophenyl)phthalazin-1-yl)amino)-1-(trifluoromethyl)cyclobutan-1-ol] | 624
32 | C[C@]1(O)C[C@H](Nc2nnc(-c3ccc(Cl)cc3)c3ccccc23)C1 [Example 119, trans-3-((4-(4-chlorophenyl)phthalazin-1-yl)amino)-1-methylcyclobutan-1-ol] | 2750
33 | O[C@]1(C(F)(F)F)C[C@H](Nc2nnc(-c3ccc(Cl)cc3)c3ccccc23)C1 [Example 120, cis-3-((4-(4-chlorophenyl)phthalazin-1-yl)amino)-1-(trifluoromethyl)cyclobutan-1-ol] | 933
34 | C[C@]1(O)CC[C@H](Nc2nnc(-c3ccc(Cl)cc3)c3ccccc23)CC1 [Example 121, trans-4-((4-(4-chlorophenyl)phthalazin-1-yl)amino)-1-methylcyclohexan-1-ol] | 3980
35 | CCN1CCCC1CNc1nnc(-c2ccc(OC)cc2)c2ccccc12 (centres unmarked) [Example 125, N-((1-ethylpyrrolidin-2-yl)methyl)-4-(4-methoxyphenyl)phthalazin-1-amine] | 2750
